Source: patent US5858692A, “Polychlorinated biphenyls (PCB) immunoassay method, its components and a kit for use in performing the same” (ENSYS, Inc., priority 1995, dated 1999)

Tested on: monoclonal F40-11G6 antibody (anti-PCB monoclonal antibody)
Test: 1 ppm PCB immunoassay (competitive ELISA), cross-reactivity of compounds found at PCB sites or of similar structure
Format: binding, Balb/c mice
Settings: for PERCENT CROSS-REACTIVITY: calculated percent cross-reactivity in the 1 ppm PCB immunoassay; for CONCENTRATION GIVING A POSITIVE RESULT; SOIL EQUIVALENT / CON[…] A POSITIVE RESULT; SOIL EQUIVALENT: positive compared to the kit standard (AROCLOR 1248, 0.7 ppm) in the 1 ppm PCB immunoassay
Method: The immunoassay of the present invention is performed according to the following procedure. Monoclonal anti-PCB antibody is immobilized in an assay vessel, or other solid support, preferably to the bottom of a polystyrene tube, at a concentration, of from 0.005 to 20 μg/tube, preferably 0.1 to 0.4 μg/tube. The concentration and affinity of the antibody for the sample molecules and reporter reagent molecules directly influences the overall sensitivity of the final method.
Antibody coated tubes were prepared by passively coating polystyrene (12×75 mm, NUNC) tubes with the monoclonal F40-11G6 antibody diluted in PBS and incubating overnight.
10 g of a soil sample were placed in an extraction vial containing 20 mL of methanol and 5 steel pellets (6mm) and the vial and its contents shaken for 1 minute to disperse the soil particles and extract the PCB. The sample was then filtered to clarify the sample using a filter of glass fiber and 0.45μ Teflon. 45 uL of the clarified filtrate sample was mixed with 955 μl of 10 mM PBS (pH=7.4) and the resulting mixture added to lyophilized enzyme conjugate reagent (0.3 μg) and mixed. At the same time, 2×45 uL of the AROCLOR 1248 standard are similarly treated. The sample and the two standards were then poured into three identical antibody coated tubes, respectively, and the resulting solution mixed. The resulting solution was incubated for 10 minutes at ambient temperature and then washed 4× with a wash buffer (detergent-saline solution). 250 uL of tetramethylbenzidene solution (KP Laboratories, Cat. No. 50-76-02) was added along with 250 uL of hydrogen peroxide solution (KPL, Cat. No. 50-65-02) and the resultant solution mixed. After incubating for 2.5 minutes the color development reaction was stopped with 250 uL of stop solution (1M sulfuric acid).
The optical density (OD) of the test sample was compared to the OD of the AROCLOR 1248 standard (0.7 ppm) which was tested simultaneously with the sample. If the sample OD is less than the standard OD, the sample contains greater than 1 ppm PCBs. If the sample OD is greater than the standard OD, the sample contains less than 1 ppm PCBs. Other concentration ranges can be assessed by diluting the test samples with suitable diluents, as long as they are non-reactive with the components of the assay.
These compounds were tested for their reactivity with the present 1 ppm PCB immunoassay. […] Overall, the compounds were each less than 1% cross-reactive, with one exception at 2%, indicating high-specificity for PCBs in the present method.

Compound	PERCENT CROSS-REACTIVITY	CONCENTRATION GIVING A POSITIVE RESULT; SOIL EQUIVALENT	CON[…] A POSITIVE RESULT; SOIL EQUIVALENT
COC(=O)c1cc(Oc2ccc(Cl)cc2Cl)ccc1[N+](=O)[O-] [BIFENOX]	< 1%	100-1,000 PPM	–
O=S(=O)(c1ccc(Cl)cc1)c1cc(Cl)c(Cl)cc1Cl [TETRADIFON]	< 10%	10-100 PPM	–
Clc1c2ccccc2c(Cl)c2ccccc12 [9,10-DICHLOROANTHRACENE, 9,10-DICHLORO-ANTHRACENE]	< 0.01%	> 10,000 PPM	–
Oc1c(Cl)c(Cl)c(Cl)c(Cl)c1Cl [PENTACHLOROPHENOL]	< 0.01%	> 10,000 PPM	–
O=S(=O)(Oc1ccc(Cl)cc1Cl)c1ccccc1 [2,4-DICHLOROPHENYL BENZENESULFONATE]	< 1%	100-1,000 PPM	–
c1ccccc1 [BENZENE]	< 0.01%	–	> 10,000 PPM
Oc1c(Cl)cc(Cl)c2ccccc12 [2,4-DICHLORO-1-NAPTHOL]	2%	50 PPM	–
Clc1cccc2ccccc12 [1-CHLORONAPHTHALENE]	< 0.01%	> 10,000 PPM	–
ClC=C(Cl)Cl [TRICHLOROETHYLENE]	< 0.01%	> 10,000 PPM	–
Clc1cc(Cl)c(Cl)c(Cl)c1Cl [PENTACHLOROBENZENE]	< 0.01%	> 10,000 PPM	–
Clc1ccc(Cl)c(Cl)c1 [1,2,4-TRICHLOROBENZENE]	< 1%	100-1,000 PPM	–
Clc1c(Cl)c(Cl)c(Cl)c(Cl)c1Cl [HEXACHLOROBENZENE]	< 0.01%	> 10,000 PPM	–
XYLENES	< 0.01%	> 10,000 PPM	–
Clc1cc(Cl)c(-c2ccc(-c3ccccc3)cc2)c(Cl)c1 [2,4,6-TRICHLOR-p-TERPHENYL]	< 0.01%	> 10,000 PPM	–
O=C(O)COc1ccc(Cl)cc1Cl [2,4-D]	< 0.1%	1,000-10,000 PPM	–
Clc1ccc(C(c2ccccc2Cl)C(Cl)(Cl)Cl)cc1 (centres unmarked) [O,P-DDT]	< 0.01%	> 10,000 PPM	–
ClCCl [METHYLENE CHLORIDE]	< 0.01%	–	> 10,000 PPM
c1ccc2ccccc2c1 [NAPHTHALENE]	< 0.01%	> 10,000 PPM	–
CC(Oc1cc(Cl)c(Cl)cc1Cl)C(=O)O (centres unmarked) [SILVEX]	< 1%	100-1,000 PPM	–
